# From US11065253B2, “Arylquinazolines” (Merck Patent GmbH, priority 2013, dated 2021)
# System: phospho-serine 2056 DNA-PK in HCT116 cells
# Assay: DNA-PK phosphorylation at serine 2056 (cellular), ELISA in bleomycin-treated HCT116 cells
# Type: cell-based
# Conditions: Homo sapiens, HCT-116, 6 h, cellular; HCT116 cells, 10 μM bleomycin, six hours; read-out: IC50 pDNA-PK
# How it was run: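 HCT116 cells were treated with 10 μM bleomycin plus test compounds for six hours at 37 °C. Phospho-Ser2056 DNA-PK measured by chemiluminescent ELISA, normalised to total DNA-PKcs signal; DMSO control as blank.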
row,IC50 [µM],Compound
1,5 to 10,"OC(c1ccc(F)c(-c2ncnc3cc(N4CCOCC4)ccc23)c1)c1nccnc1OC1COC1 (centres unmarked) [Example 32, [4-fluoro-3-(7-morpholin-4-yl-quinazolin-4-yl)phenyl]-[3-(oxetan-3-yloxy)-pyrazin-2-yl]methanol]"
2,0.5 to 5,"OC(c1ccc(F)c(-c2ncnc3cc(N4CCOCC4)ccc23)c1)c1ncccc1C(F)(F)F (centres unmarked) [Example 80, [4-Fluoro-3-(7-morpholin-4-yl-quinazolin-4-yl)-phenyl]-(3-trifluoro-methylpyridin-2-yl)-methanol]"
3,0.5 to 5,"OC(c1ccc(Cl)nn1)c1cc(-c2ncnc3cc(N4CCOCC4)ccc23)c(F)cc1F (centres unmarked) [Example 49, (6-Chloro-pyridazin-3-yl)-[2,4-difluoro-5-(7-morpholin-4-yl-quinazolin-4-yl)phenyl]-methanol]"
4,< 0.5,"OC(c1ccc(Cl)nn1)c1cc(-c2ncnc3cc(N4CCOCC4)ccc23)c(F)cc1Cl (centres unmarked) [Example 41, [2-Chloro-4-fluoro-5-(7-morpholin-4-yl-quinazolin-4-yl)phenyl]-(6-chloro-pyridazin-3-yl)methanol]"
5,0.5 to 5,"OC(c1ccc(F)c(-c2ncnc3cc(N4CCOCC4)ccc23)c1)c1nccnc1N1CCCC1 (centres unmarked) [Example 14, [4-Fluoro-3-(7-morpholin-4-yl-quinazolin-4-yl)phenyl]-(3-pyrrolidin-1-yl-pyrazin-2-yl)methanol]"
6,0.5 to 5,"Cc1nccnc1[C@@H](O)c1ccc(F)c(-c2ncnc3cc(N4CCOCC4)ccc23)c1 [Example 82, (S)-[4-Fluoro-3-(7-morpholin-4-yl-quinazolin-4-yl)-phenyl]-(3-methyl-pyrazin-2-yl)methanol]"
7,< 0.5,"Cc1cnc(C)c(C(O)c2cc(-c3ncnc4cc(N5CCOCC5)ccc34)c(F)cc2F)n1 (centres unmarked) [Example 88, [2,4-Difluoro-5-(7-morpholin-4-yl-quinazolin-4-yl)-phenyl]-(3,6-dimethyl-pyrazin-2-yl)methanol]"
8,5 to 10,"CCOc1cnnc(C(O)c2ccc(F)c(-c3ncnc4cc(N5CCOCC5)ccc34)c2)c1 (centres unmarked) [Example 79, (5-Ethoxypyridazin-3-yl)-[4-fluoro-3-(7-morpholin-4-yl-quinazolin-4-yl)phenyl]-methanol]"
9,0.5 to 5,"OC(c1ccc(F)c(-c2ncnc3cc(N4CCOCC4)ccc23)c1)c1c(Cl)cncc1Cl (centres unmarked) [Example 17, (3,5-Dichloro-pyridin-4-yl)-[4-Fluoro-3-(7-morpholin-4-yl-quinazolin-4-yl)phenyl]-methanol]"
10,0.5 to 5,"COc1ccc(C(OC)c2ccc(F)c(-c3ncnc4cc(N5CCOCC5)ccc34)c2)nn1 (centres unmarked) [Example 73, 4-{2-Fluoro-5-[methoxy-(6-methoxy-pyridazin-3-yl)methyl]phenyl}-7-morpholin-4-yl-quinazoline]"
11,< 0.5,"COc1ncc(Cl)nc1C(O)c1ccc(F)c(-c2ncnc3cc(N4CCOCC4)ccc23)c1 (centres unmarked) [Example 25, (6-Chloro-3-methoxy-pyrazin-2-yl)-[4-fluoro-3-(7-morpholin-4-yl-quinazolin-4-yl)phenyl]-methanol]"

# Same assay, conditions: Homo sapiens, HCT-116, cellular DNA-PK phosphorylation at serine 2056, HCT116 cells; read-out: IC50 pDNA-PK
row,IC50 [µM],Compound
1,0.5 to 5,"Cc1cncnc1C(O)c1cc(-c2ncnc3cc(N4CCOCC4)ccc23)ccc1F (centres unmarked) [Example 392, [2-Fluoro-5-(7-morpholin-4-yl-quinazolin-4-yl)-phenyl]-(5-methyl-pyrimidin-4-yl)-methanol]"
2,5 to 10,"Cn1c(C(O)c2cc(-c3ncnc4cc(N5CCOCC5)ccc34)c(F)cc2Cl)nccc1=O (centres unmarked) [Example 368, 2-{[2-Chloro-4-fluoro-5-(7-morpholin-4-yl-quinazolin-4-yl)-phenyl]hydroxy-methyl}-3-methyl-3H-pyrimidin-4-one]"

# Same assay, conditions: Homo sapiens, HCT-116, phospho-serine 2056 DNA-PK, bleomycin-treated HCT116 cells; class symbols A-D; read-out: IC50 pDNA-PK
row,IC50 [µM],Compound
1,< 0.5,"OC(c1ccccn1)c1cc(-c2ncnc3cc(N4CCOCC4)ccc23)c(F)cc1F (centres unmarked) [Example 218, [2,4-Difluoro-5-(7-morpholin-4-yl-quinazolin-4-yl)-phenyl]pyridin-2-yl-methanol]"
2,0.5 to 5,"OC(c1ccc(OCC(F)(F)F)nn1)c1cc(-c2ncnc3cc(N4CCOCC4)ccc23)c(F)cc1Cl (centres unmarked) [Example 115, [2-Chloro-4-fluoro-5-(7-morpholin-4-yl-quinazolin-4-yl)-phenyl]-[6-(2,2,2-trifluoro-ethoxy)-pyridazin-3-yl]-methanol]"
3,0.5 to 5,"OCc1csc(C(O)c2cc(-c3ncnc4cc(N5CCOCC5)ccc34)c(F)cc2Cl)n1 (centres unmarked) [Example 142, [2-Chloro-4-fluoro-5-(7-morpholin-4-yl-quinazolin-4-yl)-phenyl]-(4-hydroxymethyl-thiazol-2-yl)-methanol]"
4,0.5 to 5,"CCOc1ccc(C(O)c2ccc(F)c(-c3ncnc4cc(N5CCOCC5)ccc34)c2)nn1 (centres unmarked) [Example 134, (6-Ethoxy-pyridazin-3-yl)-[4-fluoro-3-(7-morpholin-4-yl-quinazolin-4-yl)-phenyl] methanol]"

# Same assay, conditions: Homo sapiens, HCT-116, phospho-serine 2056 DNA-PK, bleomycin-treated HCT116 cells; read-out: IC50 pDNA-PK
row,IC50 [µM],Compound
1,10 to 30,"COc1ccc(C(C(N)=O)c2cc(-c3ncnc4cc(N5CCOCC5)ccc34)ccc2Cl)nn1 (centres unmarked) [Example 310, 2-[2-Chloro-5-(7-morpholin-4-yl-quinazolin-4-yl)-phenyl]-2-(6-methoxy-pyridazin-3-yl)acetamide]"
2,0.5 to 5,"O=c1[nH]nc(C(O)c2ccc(F)c(-c3ncnc4cc(N5CCOCC5)ccc34)c2)c2sccc12 (centres unmarked) [Example 337, 7-[[4-Fluoro-3-(7-morpholino-quinazolin-4-yl)-phenyl]hydroxy-methyl]-5H-thieno-[2,3-d}pyridazin-4-one]"
3,5 to 10,"COc1nccnc1C(C(N)=O)c1cc(-c2ncnc3cc(N4CCOCC4)ccc23)ccc1Cl (centres unmarked) [Example 304, 2-[2-Chloro-5-(7-morpholin-4-yl-quinazolin-4-yl)-phenyl]-2-(3-methoxy-pyrazin-2-yl)acetamide]"
4,10 to 30,"NC(=O)C(c1cccnc1)c1cc(-c2ncnc3cc(N4CCOCC4)ccc23)c(F)cc1F (centres unmarked) [Example 294, 2-[2,4-Difluoro-5-(7-morpholin-4-yl-quinazolin-4-yl)-phenyl]-2-pyridin-3-ylacetamide]"
5,< 0.5,"OC(c1cc(-c2ncnc3cc(N4CCOCC4)ccc23)c(F)cc1F)c1nncc2ccsc12 (centres unmarked) [Example 342, [2,4-Difluoro-5-(7-morpholin-4-yl-quinazolin-4-yl)-phenyl]thieno[2,3-d}-pyridazin-7-yl-methanol]"
6,0.5 to 5,"Cc1cnc(C(O)c2cc(-c3ncnc4cc(N5CCOCC5)ccc34)c(F)cc2F)c(C)n1 (centres unmarked) [Example 355, [2,4-Difluoro-5-(7-morpholin-4-yl-quinazolin-4-yl)-phenyl]-(3,5-dimethyl-pyrazin-2-yl)methanol]"
7,10 to 30,"COc1ccc(C(C(N)=O)c2ccc(F)c(-c3ncnc4cc(N5CCOCC5)ccc34)c2)nn1 (centres unmarked) [Example 308, 2-[4-Fluoro-3-(7-morpholin-4-yl-quinazolin-4-yl)-phenyl]-2-(6-methoxypyridazin-3-yl)acetamide]"
8,0.5 to 5,"NC(=O)C(c1ccc(F)c(-c2ncnc3cc(N4CCOCC4)ccc23)c1)c1c(F)cncc1F (centres unmarked) [Example 321, 2-(3,5-Difluoro-pyridin-4-yl)-2-[4-fluoro-3-(7-morpholin-4-yl-quinazolin-4-yl)-phenyl]acetamide]"
9,5 to 10,"Cc1nccnc1C(C(N)=O)c1cc(-c2ncnc3cc(N4CCOCC4)ccc23)ccc1Cl (centres unmarked) [Example 303, 2-[2-Chloro-5-(7-morpholin-4-yl-quinazolin-4-yl)-phenyl]-2-(3-methyl-pyrazin-2-yl)-acetamide]"
10,10 to 30,"NC(=O)C(c1cncc(Cl)c1)c1ccc(F)c(-c2ncnc3cc(N4CCOCC4)ccc23)c1 (centres unmarked) [Example 297, 2-(5-Chloro-pyridin-3-yl)-2-[4-fluoro-3-(7-morpholin-4-yl-quinazolin-4-yl)-phenyl]acetamide]"

# Same assay, conditions: cellular DNA-PK phosphorylation at serine 2056, HCT116 cells; read-out: IC50 pDNA-PK
row,IC50 [µM],Compound
1,< 0.5,"OC(c1cc(-c2ncnc3cc(N4CCOCC4)ccc23)c(F)cc1Cl)c1ncnc2ccoc12 (centres unmarked) [Example 441, [2-Chloro-4-fluoro-5-(7-morpholin-4-yl-quinazolin-4-yl)-phenyl]furo[3,2-d}-pyrimidin-4-yl-methanol]"
2,< 0.5,"OC(c1cccnn1)c1cc(-c2ncnc3cc(N4CCOCC4)ccc23)ccc1Cl (centres unmarked) [Example 479, [2-Chloro-5-(7-morpholin-4-yl-quinazolin-4-yl)-phenyl]pyridazin-3-yl-methanol]"
3,0.5 to 5,"Cc1nccnc1C(O)c1cc(-c2ncnc3cc(N4CCOCC4)ccc23)ccc1Cl (centres unmarked) [Example 427, [2-Chloro-5-(7-morpholin-4-yl-quinazolin-4-yl)-phenyl]-(3-methyl-pyrazin-2-yl)-methanol (Ena 1)]"
4,< 0.5,"OC(c1ccc(F)c(-c2ncnc3cc(N4CCOCC4)ccc23)c1)c1ncnc2ccoc12 (centres unmarked) [Example 471, [4-Fluoro-3-(7-morpholin-4-yl-quinazolin-4-yl)-phenyl]furo[3,2-d}-pyrimidin-4-yl-methanol]"
5,< 0.5,"COc1nccnc1C(O)c1cc(-c2ncnc3cc(N4CCOCC4)ccc23)c(F)cc1F (centres unmarked) [Example 467, [2,4-Difluoro-5-(7-morpholin-4-yl-quinazolin-4-yl)-phenyl]-(3-methoxy-pyrazin-2-yl)-methanol]"
6,< 0.5,"OC(c1ccc(F)c(-c2ncnc3cc(N4CCOCC4)ccc23)c1)c1ncnc2occc12 (centres unmarked) [Example 434, [4-Fluoro-3-(7-morpholin-4-yl-quinazolin-4-yl)-phenyl]furo[2,3-d}-pyrimidin-4-yl-methanol]"

# Same assay, conditions: cellular; HCT116 cells, 10 μM bleomycin, six hours; read-out: IC50 pDNA-PK
row,IC50 [µM],Compound
1,< 0.5,COc1nnc(Cl)cc1C(O)c1ccc(F)c(-c2ncnc3cc(N4CCOCC4)ccc23)c1 (centres unmarked) [Example 9]

# Same assay, conditions: phospho-serine 2056 DNA-PK, bleomycin-treated HCT116 cells; class symbols A-D; read-out: IC50 pDNA-PK
row,IC50 [µM],Compound
1,< 0.5,"CC(C#N)Oc1ccc(C(O)c2cc(-c3ncnc4cc(N5CCOCC5)ccc34)c(F)cc2Cl)nn1 (centres unmarked) [Example 101, 2-(6-{[2-Chloro-4-fluoro-5-(7-morpholin-4-yl-quinazolin-4-yl)-phenyl]hydroxy-methyl}pyridazin-3-yloxy)propionitrile]"
